Each structure is given as a SMILES string.

For this assay, the target named is T1, human recombinant mGluR5 (Homo sapiens, UniProt P41594).
T1 construct: expressed in transfected cells; hygromycin and geneticin selection
T1 sequence (P41594 21-1212): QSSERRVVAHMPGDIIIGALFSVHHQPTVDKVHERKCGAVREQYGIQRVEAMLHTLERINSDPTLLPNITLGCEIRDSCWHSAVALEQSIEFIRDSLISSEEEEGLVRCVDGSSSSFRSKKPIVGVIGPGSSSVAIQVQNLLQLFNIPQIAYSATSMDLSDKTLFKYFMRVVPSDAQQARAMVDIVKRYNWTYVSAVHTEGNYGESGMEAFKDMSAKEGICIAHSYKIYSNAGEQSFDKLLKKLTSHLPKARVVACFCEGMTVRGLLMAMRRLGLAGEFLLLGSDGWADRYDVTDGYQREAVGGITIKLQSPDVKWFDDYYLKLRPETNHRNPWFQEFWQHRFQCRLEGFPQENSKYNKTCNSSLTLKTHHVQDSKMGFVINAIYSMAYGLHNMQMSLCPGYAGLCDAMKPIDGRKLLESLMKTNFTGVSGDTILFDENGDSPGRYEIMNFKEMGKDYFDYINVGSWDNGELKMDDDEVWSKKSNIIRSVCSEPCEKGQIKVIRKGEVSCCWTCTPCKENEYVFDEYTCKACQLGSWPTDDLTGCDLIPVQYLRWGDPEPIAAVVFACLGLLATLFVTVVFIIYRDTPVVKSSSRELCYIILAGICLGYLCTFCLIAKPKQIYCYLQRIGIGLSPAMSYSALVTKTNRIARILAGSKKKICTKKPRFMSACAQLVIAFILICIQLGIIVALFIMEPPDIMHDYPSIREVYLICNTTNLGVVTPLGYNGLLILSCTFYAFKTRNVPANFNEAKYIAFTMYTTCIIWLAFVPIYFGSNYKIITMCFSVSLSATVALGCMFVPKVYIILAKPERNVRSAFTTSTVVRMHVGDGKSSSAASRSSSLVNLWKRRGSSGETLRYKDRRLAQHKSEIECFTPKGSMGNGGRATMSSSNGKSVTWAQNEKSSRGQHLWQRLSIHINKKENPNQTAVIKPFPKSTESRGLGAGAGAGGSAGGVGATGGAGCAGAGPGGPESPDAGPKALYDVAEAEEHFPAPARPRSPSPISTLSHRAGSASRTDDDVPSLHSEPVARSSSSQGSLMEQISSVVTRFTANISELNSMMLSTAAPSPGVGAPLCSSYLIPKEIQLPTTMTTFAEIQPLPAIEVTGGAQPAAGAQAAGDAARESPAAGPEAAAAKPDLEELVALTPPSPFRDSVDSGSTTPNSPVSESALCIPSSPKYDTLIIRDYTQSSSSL
Kind of assay: positive modulation of mGluR5, calcium based FLIPR assay. The settings on record: HEK 293 cell line expressing human recombinant mGluR5; Ca2+ peak height after glutamate at approximately 5% basal stimulation; nonlinear regression. The method, then: The positive modulation of mGluR5 is measured in a HEK 293 cell line expressing human recombinant mGluR5 and is detected with calcium based FLIPR assay. The cells are cultured with DMEM supplemented with 10% FCS, 2 μg/mL tetracycline, 100 μg/mL hygromycin and 500 μg/mL geneticin. The cell culture media is exchanged for tetracycline-free cell culture media 3-7 days before the assay. One day before the assay the cell culture medium is exchanged to DMEM without glutamine and phenol red and supplemented with 10% FCS, 100 μg/mL hygromycin and 500 μg/mL geneticin. On the assay day, the medium of the subconfluent cultures is removed and the cells are detached by addition of 2.5 ml EDTA (0.02%) per 175 cm2 culture flask for 1 minute. The cells are resuspend in Ringer solution (140 mM NaCl, 5 mM KCl, 2.5 mM CaCl2, 1.5 mM MgCl2, 5 mM Glucose, 10 mM Hepes; adjusted to pH 7.4 with NaOH), pooled and Ringer solution added to adjust the volume to 50 mL. The cell suspension is centrifuged for […] at 1500 U/min (425 g). The supernatant is removed and the cells washed a second time with 50 ml fresh Ringer solution and centrifuged again as before. The supernatant is again removed and the pellet resuspended in Ringer solution to 1,000,000 cells/ml (1×10^6 cells/mL). The cells are plated onto BD BioCoat Poly-D-Lysine 384 well plates (20.000 cells/well; 20 μl/well). The lid covered plates are then incubated until use at 37° C./10% CO2. For dye loading, 20 μl of Calcium-4 assay kit solution (prepared according to the manufacturer's description in Ringer solution) are added to the cells and the plates are incubated for 80 min 37° C. and then 10 min at room temperature.
Controls, Compound Dilution and Assay Execution:
Each assay plate contained wells with “high” and “low” controls:
Low controls 1% DMSO/ringer solution+basal glutamate activation (defined as 100% CTL).
High controls 10 μM CDPPB+basal glutamate activation (defined as 200% CTL).
Test compounds are dissolved and diluted in DMSO to 100-fold the desired concentrations. In a second step, the compounds are diluted in Ringer solution such that the compounds are 4-fold more concentrated than the desired final assay concentration. The final DMSO concentration was 1%.
20 μl of each compound solution are then transferred to the assay plate and the Ca2+ kinetic is measured to determine any intrinsic compound activity. After 5 min incubation in the FLIPR device, the second stimulation with 20 μl of glutamate in Ringer solution (glutamate concentration adjusted to approximately 5% basal stimulation of the maximal possible glutamate effect) is added and the kinetic Ca2+ response of the wells was measured for the modulation effect.
The peak height of the Ca release related fluorescence signal (9-66) is used for the EC50.
The EC50 of the modulation is calculated over a nonlinear regression with GraphPad Prism (Table 1).
As a reminder, the EC50 is the concentration needed to bring the measured effect to its halfway point. Turning to `COc1cc(C(=O)N2CCN(C(=O)c3ncn(-c4cccc(F)c4)n3)CC2C)ccc1C` (stereo not shown) [Example 233], the EC50 amounted to 476 nM.

Take `COCc1cccc(C(=O)N2CCN(C(=O)c3ncn(-c4cccc(Cl)c4)n3)C(C)(C)C2)n1` [Example 38]: the EC50 was 410 nM. As for `COc1cccc(C(=O)N2CCN(C(=O)c3ncn(-c4cccc(F)c4)n3)C(C)(C)C2)n1` [Example 4], the EC50 came out at 101 nM. Take `CC1(C)CN(C(=O)c2cccc(F)c2)CCN1C(=O)c1ncn(-c2ccccc2)n1` [Example 114]: the half-maximal effective concentration (EC50) was 233 nM. For the compound `Cc1cc2cc(C(=O)N3CCN(C(=O)c4ncn(-c5cccc(Cl)c5)n4)C(C)(C)C3)ccc2[nH]1` [Example 80], the concentration giving a half-maximal response (EC50) was found to be 139 nM.

`CC1(C)CN(C(=O)c2cccc(Cl)c2)CCN1C(=O)c1ncn(-c2ccccc2F)n1` [Example 194]: the EC50 is 491 nM. Regarding `CC1(C)CN(C(=O)c2csc(C3CC3)n2)CCN1C(=O)c1ncn(-c2ccccc2)n1` [Example 141], the concentration giving a half-maximal response (EC50) was found to be 487 nM. Take `CC1(C)CN(C(=O)c2cccc(C3CC3)c2)CCN1C(=O)c1ncn(-c2ccccc2)n1` [Example 136]: the EC50 amounted to 52 nM.

Consider `CC1(C)CN(C(=O)c2cc(Cl)cc(C(F)(F)F)c2)CCN1C(=O)c1ncn(-c2cccc(Cl)c2)n1` [Example 29], for which the EC50 was found to be 109 nM. Take `Cn1ccc2cc(C(=O)N3CCN(C(=O)c4ncn(-c5cccc(Cl)c5)n4)C(C)(C)C3)ccc21` [Example 82]: the EC50 stood at 120 nM. For `COc1ccc2c(C)c(C(=O)N3CCN(C(=O)c4ncn(-c5cccc(Cl)c5)n4)C(C)C3)oc2c1` (stereo not shown) [Example 278], the EC50 amounted to 929 nM. Turning to `COc1cc(C(=O)N2CCN(C(=O)c3ncn(-c4cccc(C)c4)n3)C(C)C2)ccc1C` (stereo not shown) [Example 288], the concentration for a half-maximal effect (EC50) was 372 nM. To `COc1cc(Br)cc(C(=O)N2CCN(C(=O)c3ncn(-c4cccc(Cl)c4)n3)C(C)(C)C2)n1` [Example 12] belongs 19 nM; to `CC1(C)CN(C(=O)c2cccc(Br)c2)CCN1C(=O)c1ncn(-c2cccc(Cl)c2)n1` [Example 15], 30 nM; to `CC(=O)c1cccc(C(=O)N2CCN(C(=O)c3ncn(-c4cccc(Cl)c4)n3)C(C)(C)C2)n1` [Example 52], 63 nM. Take `CCCc1nc2cc(C(=O)N3CCN(C(=O)c4ncn(-c5ccccc5)n4)C(C)(C)C3)cc(C)c2[nH]1` [Example 146]: the 50% effective concentration (EC50) was found to be 2170 nM. To `CC1CN(C(=O)c2ncn(-c3cccc(Cl)c3)n2)CCN1C(=O)c1cccc(-c2ccn(C)n2)c1` (stereo not shown) [Example 225] belongs 498 nM. To `CCOc1cccc(C(=O)N2CCN(C(=O)c3ncn(-c4cccc(Cl)c4)n3)C(C)(C)C2)n1` [Example 62] belongs 869 nM. With `Cc1oc2ccccc2c1C(=O)N1CCN(C(=O)c2ncn(-c3ccccc3)n2)CC1C` (stereo not shown) [Example 240], the EC50 worked out at 350 nM. In the case of `CC1(C)CN(C(=O)c2csc(-c3ccccc3)n2)CCN1C(=O)c1ncn(-c2cccc(Cl)c2)n1` [Example 54], the EC50 is 201 nM. As for `CC1CN(C(=O)c2cccc3c2OCO3)CCN1C(=O)c1ncn(-c2cccc(Cl)c2)n1` (stereo not shown) [Example 286], the EC50 turned out to be 1330 nM. To `Cc1cccc(-n2cnc(C(=O)N3CCN(C(=O)c4cc(Cl)c5c(c4)OCCO5)CC3(C)C)n2)c1` [Example 9] belongs 53 nM.

With `CC(C)c1cccc(C(=O)N2CCN(C(=O)c3ncn(-c4ccccc4)n3)C(C)(C)C2)n1` [Example 206, [4-(6-isopropyl-pyridine-2-carbonyl)-2,2-dimethyl-piperazin-1-yl]-(1-phenyl-1H-[1,2,4]triazol-3-yl)-methanone], the EC50 worked out at 188 nM. Regarding `Cc1cc(-n2cnc(C(=O)N3CCN(C(=O)c4cc(Cl)c5c(c4)OCCO5)CC3(C)C)n2)ccc1F` [Example 162], the concentration giving a half-maximal response (EC50) came out at 475 nM. For the compound `CC1(C)CN(C(=O)c2cc(Cl)c3c(c2)OCCO3)CCN1C(=O)c1ncn(-c2cccc(F)c2)n1` [Example 3], the concentration for a half-maximal effect (EC50) was found to be 86 nM. Take `CC1(C)CN(C(=O)c2c(Cl)nc3sccn23)CCN1C(=O)c1ncn(-c2cccc(Cl)c2)n1` [Example 63]: the EC50 worked out at 89 nM. As for `CC1(C)CN(C(=O)c2cc(Cl)c3c(c2)OCCO3)CCN1C(=O)c1nnn(-c2cccc(Cl)c2)n1` [Example 171, [4-(8-Chloro-2,3-dihydro-benzo[1,4]dioxine-6-carbonyl)-2,2-dimethyl-piperazin-1-yl]-[2-(3-chloro-phenyl)-2H-tetrazol-5-yl]-methanone], the half-maximal effective concentration (EC50) was found to be 56 nM. As for `CC1CN(C(=O)c2cccc(-c3nccs3)c2)CCN1C(=O)c1ncn(-c2cccc(Cl)c2)n1` (stereo not shown) [Example 270], the concentration for a half-maximal effect (EC50) is 677 nM. Take `CC1(C)CN(C(=O)c2ccnc(C(F)(F)F)n2)CCN1C(=O)c1ncn(-c2ccccc2)n1` [Example 143]: the 50% effective concentration (EC50) stood at 589 nM. Regarding `COc1nc(C(=O)N2CCN(C(=O)c3ncn(-c4ccc(F)c(C)c4)n3)C(C)(C)C2)cc2ccccc12` [Example 160, [1-(4-Fluoro-3-methyl-phenyl)-1H-[1,2,4]triazol-3-yl]-[4-(1-methoxy-isoquinoline-3-carbonyl)-2,2-dimethyl-piperazin-1-yl]-methanone], the concentration for a half-maximal effect (EC50) was determined as 207 nM.

Take `CC1(C)CN(C(=O)c2cccc(C(F)(F)F)n2)CCN1C(=O)c1nnn(-c2ccccc2)n1` [Example 168]: the concentration giving a half-maximal response (EC50) stood at 15 nM.

`CC1(C)CN(C(=O)c2cccc(Cl)c2)CCN1C(=O)c1nnn(-c2cccc(Cl)c2)n1` [Example 191]: the EC50 was 64 nM. In the case of `Cc1cc(C(=O)N2CCN(C(=O)c3ncn(-c4cccc(F)c4)n3)C(C)(C)C2)oc1C` [Example 174, [4-(4,5-Dimethyl-furan-2-carbonyl)-2,2-dimethyl-piperazin-1-yl]-[1-(3-fluoro-phenyl)-1H-[1,2,4]triazol-3-yl]-methanone], the EC50 came to 221 nM. `CC1(C)CN(C(=O)c2cccc(-c3ccncc3)n2)CCN1C(=O)c1ncn(-c2cccc(Cl)c2)n1` [Example 86]: the EC50 amounted to 164 nM. For the compound `COCc1c(C(=O)N2CCN(C(=O)c3ncn(-c4cccc(Cl)c4)n3)C(C)C2)oc2ccccc12` (stereo not shown) [Example 274], the EC50 is 810 nM. To `CCCOc1nc(C(=O)N2CCN(C(=O)c3ncn(-c4cccc(Cl)c4)n3)C(C)(C)C2)cc2ccccc12` [Example 87] belongs 105 nM; to `Cc1oc2ccccc2c1C(=O)N1CCN(C(=O)c2ncn(-c3cccc(Cl)c3)n2)C(C)C1` (stereo not shown) [Example 275], 170 nM; to `CC1(C)CN(C(=O)c2cncc(C(F)(F)F)n2)CCN1C(=O)c1ncn(-c2cccc(Cl)c2)n1` [Example 49], 222 nM. Consider `CC1(C)CN(C(=O)c2cccc(Cl)c2)CCN1C(=O)c1nnn(-c2cccc(F)c2)n1` [Example 192], for which the 50% effective concentration (EC50) was determined as 159 nM.

Turning to `CC1CN(C(=O)c2ncn(-c3cccc(F)c3)n2)CCN1C(=O)c1cc(Cl)c2c(c1)OCCO2` (stereo not shown) [Example 234], the EC50 was 301 nM. As for `CC1CN(C(=O)c2ncn(-c3cccc(Cl)c3)n2)CCN1C(=O)c1cn(C)c2ccccc12` (stereo not shown) [Example 230], the EC50 was 570 nM.

Turning to `CC1CN(C(=O)c2cc3c(Cl)cccc3s2)CCN1C(=O)c1ncn(-c2cccc(Cl)c2)n1` (stereo not shown) [Example 268], the EC50 came to 327 nM. For the compound `Cc1c(C(=O)N2CCN(C(=O)c3ncn(-c4cccc(Cl)c4)n3)C(C)(C)C2)oc2ccc(F)cc12` [Example 41], the half-maximal effective concentration (EC50) was 200 nM.

For the origin of these results see US8883789B2, “Piperazine derivatives and their use as positive allosteric modulators of mGluR5 receptors” (Boehringer Ingelheim International GmbH, priority 2011, dated 2014).
